Laboratory results as given in PubChem BioAssay AID270 (DTP/NCI, 2004).
Where “and” joins values, the source holds several entries; their conditions need not be identical. Equal entries are not always repeated. Inconclusive results are not listed. How the source made its calls: active means survival T/C of 150% or more; inactive means T/C below 125% in these data.

Tested on: BDF1 mice, s.c. Lewis lung carcinoma, T/C %
Assay: NCI In Vivo Anticancer Drug Screen. Data for tumor model Lewis Lung Carcinoma (subcutaneous) in B6D2F1 (BDF1) mice
Summary of the method: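 The value reflects a ratio in which the treated cohort's survival time or tumour size is compared against mice receiving only vehicle.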

Measured: T/C

CC1CCC(NC(=O)N(CCCl)N=O)CC1 (configuration not stated)
18 % of control: endpoint: median tumor weight (est.), dose: 24.0 mg/kg/injection, schedule: Q01DX001 (sc), vehicle: olive oil, sesame oil, peanut oil, higher = larger tumour
31 % of control: endpoint: median tumor weight (est.), dose: 24.0 mg/kg/injection, schedule: Q01DX001 (ip), vehicle: saline with Tween-80, higher = larger tumour
41 % of control and 50 % of control: endpoint: median tumor weight (est.), dose: 12.0 mg/kg/injection, schedule: Q01DX001 (ip), vehicle: gum acacia, higher = larger tumour
42 % of control: endpoint: median tumor weight (est.), dose: 15.0 mg/kg/injection, schedule: Q01DX001 (ip), vehicle: Klucel (hydroxypropylcellulose) (HPC), higher = larger tumour
3 % of control: endpoint: median tumor weight (est.), dose: 8.0 mg/kg/injection, schedule: Q01DX009 (ip), vehicle: Klucel (hydroxypropylcellulose) (HPC), higher = larger tumour | endpoint: median tumor weight (est.), dose: 30.0 mg/kg/injection, schedule: Q01DX001 (ip), vehicle: Klucel (hydroxypropylcellulose) (HPC), higher = larger tumour
active: endpoint: median survival time, dose: 10.0 mg/kg/injection, schedule: Q01DX005 (ip), vehicle: saline with Tween-80, higher = longer survival 157 % of control | endpoint: median survival time, dose: 12.0 mg/kg/injection, schedule: Q01DX001 (ip), vehicle: gum acacia, higher = longer survival 158 % of control | endpoint: median survival time, dose: 16.0 mg/kg/injection, schedule: Q05DX002 (ip), vehicle: gum acacia, higher = longer survival 156 % of control | endpoint: median survival time, dose: 24.0 mg/kg/injection, schedule: Q08DX002 (ip), vehicle: gum acacia, higher = longer survival 165 % of control | endpoint: median survival time, dose: 30.0 mg/kg/injection, schedule: Q01DX001 (ip), vehicle: Klucel (hydroxypropylcellulose) (HPC), higher = longer survival 150 % of control | endpoint: median survival time, dose: 30.0 mg/kg/injection, schedule: Q01DX001 (ip), vehicle: saline with Tween-80, higher = longer survival 160 % of control
92 % of control: endpoint: median tumor weight (est.), dose: 7.5 mg/kg/injection, schedule: Q01DX001 (ip), vehicle: Klucel (hydroxypropylcellulose) (HPC), higher = larger tumour
inactive: endpoint: mean survival time, dose: 8.0 mg/kg/injection, schedule: Q08DX002 (ip), vehicle: saline + alcohol, higher = longer survival 97 % of control | endpoint: mean survival time, dose: 16.0 mg/kg/injection, schedule: Q08DX002 (ip), vehicle: saline + alcohol, higher = longer survival 105 % of control | endpoint: mean survival time, dose: 24.0 mg/kg/injection, schedule: Q08DX002 (ip), vehicle: saline + alcohol, higher = longer survival 123 % of control | endpoint: median survival time, dose: 0.5 mg/kg/injection, schedule: Q01DX001 (ip), vehicle: Klucel (hydroxypropylcellulose) (HPC), higher = longer survival 107 % of control | endpoint: median survival time, dose: 1.0 mg/kg/injection, schedule: Q01DX001 (ip), vehicle: Klucel (hydroxypropylcellulose) (HPC), higher = longer survival 86 % of control | endpoint: median survival time, dose: 1.0 mg/kg/injection, schedule: Q01DX005 (ip), vehicle: saline + alcohol, higher = longer survival 90 % of control and 107 % of control | endpoint: median survival time, dose: 1.0 mg/kg/injection, schedule: Q02DX009 (ip), vehicle: saline + alcohol, higher = longer survival 106 % of control and 124 % of control | endpoint: median survival time, dose: 2.0 mg/kg/injection, schedule: Q01DX005 (ip), vehicle: saline + alcohol, higher = longer survival 113 % of control and 114 % of control | endpoint: median survival time, dose: 2.0 mg/kg/injection, schedule: Q01DX009 (ip), vehicle: Klucel (hydroxypropylcellulose) (HPC), higher = longer survival 90 % of control and 105 % of control and 120 % of control | endpoint: median survival time, dose: 2.0 mg/kg/injection, schedule: Q01DX009 (ip), vehicle: saline with Tween-80, higher = longer survival 91 % of control and 114 % of control | endpoint: median survival time, dose: 2.0 mg/kg/injection, schedule: Q02DX009 (ip), vehicle: saline + alcohol, higher = longer survival 115 % of control | endpoint: median survival time, dose: 4.0 mg/kg/injection, schedule: Q01DX001 (ip), vehicle: Klucel (hydroxypropylcellulose) (HPC), higher = longer survival 86 % of control | endpoint: median survival time, dose: 4.0 mg/kg/injection, schedule: Q01DX005 (ip), vehicle: saline + alcohol, higher = longer survival 93 % of control and 105 % of control | endpoint: median survival time, dose: 4.0 mg/kg/injection, schedule: Q01DX009 (ip), vehicle: Klucel (hydroxypropylcellulose) (HPC), higher = longer survival 92 % of control and 97 % of control | endpoint: median survival time, dose: 4.0 mg/kg/injection, schedule: Q01DX009 (ip), vehicle: saline with Tween-80, higher = longer survival 98 % of control | endpoint: median survival time, dose: 4.0 mg/kg/injection, schedule: Q02DX009 (ip), vehicle: saline + alcohol, higher = longer survival 90 % of control and 115 % of control | endpoint: median survival time, dose: 6.7 mg/kg/injection, schedule: Q01DX005 (ip), vehicle: saline with Tween-80, higher = longer survival 105 % of control and 113 % of control | endpoint: median survival time, dose: 7.0 mg/kg/injection, schedule: Q01DX001 (ip), vehicle: saline with Tween-80, higher = longer survival 104 % of control and 121 % of control | endpoint: median survival time, dose: 7.5 mg/kg/injection, schedule: Q01DX001 (ip), vehicle: Klucel (hydroxypropylcellulose) (HPC), higher = longer survival 86 % of control | endpoint: median survival time, dose: 7.5 mg/kg/injection, schedule: Q01DX001 (ip), vehicle: saline with Tween-80, higher = longer survival 112 % of control | endpoint: median survival time, dose: 8.0 mg/kg/injection, schedule: Q01DX001 (ip), vehicle: Klucel (hydroxypropylcellulose) (HPC), higher = longer survival 96 % of control | endpoint: median survival time, dose: 8.0 mg/kg/injection, schedule: Q01DX001 (ip), vehicle: saline + alcohol, higher = longer survival 100 % of control and 107 % of control | endpoint: median survival time, dose: 8.0 mg/kg/injection, schedule: Q01DX005 (ip), vehicle: saline + alcohol, higher = longer survival 118 % of control and 120 % of control | endpoint: median survival time, dose: 8.0 mg/kg/injection, schedule: Q02DX009 (ip), vehicle: saline + alcohol, higher = longer survival 118 % of control | endpoint: median survival time, dose: 8.0 mg/kg/injection, schedule: Q08DX002 (ip), vehicle: saline + alcohol, higher = longer survival 95 % of control | endpoint: median survival time, dose: 9.0 mg/kg/injection, schedule: Q01DX001 (ip), vehicle: Klucel (hydroxypropylcellulose) (HPC), higher = longer survival 94 % of control | endpoint: median survival time, dose: 10.0 mg/kg/injection, schedule: Q01DX001 (ip), vehicle: Klucel (hydroxypropylcellulose) (HPC), higher = longer survival 85 % of control and 95 % of control | endpoint: median survival time, dose: 10.7 mg/kg/injection, schedule: Q01DX001 (ip), vehicle: saline with Tween-80, higher = longer survival 111 % of control | endpoint: median survival time, dose: 11.0 mg/kg/injection, schedule: Q01DX001 (ip), vehicle: saline with Tween-80, higher = longer survival 94 % of control and 113 % of control | endpoint: median survival time, dose: 13.0 mg/kg/injection, schedule: Q04DX004 (ip), vehicle: saline with Tween-80, higher = longer survival 115 % of control | endpoint: median survival time, dose: 15.0 mg/kg/injection, schedule: Q01DX001 (ip), vehicle: Klucel (hydroxypropylcellulose) (HPC), higher = longer survival 112 % of control | endpoint: median survival time, dose: 16.0 mg/kg/injection, schedule: Q01DX001 (ip), vehicle: gum acacia, higher = longer survival 112 % of control | endpoint: median survival time, dose: 16.0 mg/kg/injection, schedule: Q01DX001 (ip), vehicle: saline + alcohol, higher = longer survival 109 % of control | endpoint: median survival time, dose: 16.0 mg/kg/injection, schedule: Q01DX001 (ip), vehicle: saline with Tween-80, higher = longer survival 95 % of control and 118 % of control | endpoint: median survival time, dose: 16.0 mg/kg/injection, schedule: Q06DX002 (ip), vehicle: gum acacia, higher = longer survival 121 % of control | endpoint: median survival time, dose: 16.0 mg/kg/injection, schedule: Q07DX002 (ip), vehicle: saline with Tween-80, higher = longer survival 83 % of control | endpoint: median survival time, dose: 16.0 mg/kg/injection, schedule: Q08DX002 (ip), vehicle: saline + alcohol, higher = longer survival 105 % of control | endpoint: median survival time, dose: 16.0 mg/kg/injection, schedule: Q11DX002 (ip), vehicle: saline with Tween-80, higher = longer survival 63 % of control | endpoint: median survival time, dose: 16.0 mg/kg/injection, schedule: Q11DX002 (oral), vehicle: saline with Tween-80, higher = longer survival 103 % of control | endpoint: median survival time, dose: 18.0 mg/kg/injection, schedule: Q01DX001 (ip), vehicle: other, higher = longer survival 118 % of control | endpoint: median survival time, dose: 20.0 mg/kg/injection, schedule: Q01DX001 (ip), vehicle: Klucel (hydroxypropylcellulose) (HPC), higher = longer survival 115 % of control | endpoint: median survival time, dose: 22.0 mg/kg/injection, schedule: Q01DX005 (ip), vehicle: saline with Tween-80, higher = longer survival 113 % of control | endpoint: median survival time, dose: 24.0 mg/kg/injection, schedule: Q07DX002 (ip), vehicle: saline with Tween-80, higher = longer survival 77 % of control | endpoint: median survival time, dose: 24.0 mg/kg/injection, schedule: Q11DX002 (ip), vehicle: saline with Tween-80, higher = longer survival 110 % of control | endpoint: median survival time, dose: 24.0 mg/kg/injection, schedule: Q11DX002 (oral), vehicle: saline with Tween-80, higher = longer survival 103 % of control | endpoint: median survival time, dose: 25.0 mg/kg/injection, schedule: Q04DX004 (ip), vehicle: saline with Tween-80, higher = longer survival 111 % of control | endpoint: median survival time, dose: 32.0 mg/kg/injection, schedule: Q01DX001 (ip), vehicle: saline + alcohol, higher = longer survival 86 % of control and 88 % of control | endpoint: median survival time, dose: 36.0 mg/kg/injection, schedule: Q10DX002 (ip), vehicle: gum acacia, higher = longer survival 108 % of control | endpoint: median survival time, dose: 36.0 mg/kg/injection, schedule: Q12DX002 (ip), vehicle: gum acacia, higher = longer survival 93 % of control | endpoint: median survival time, dose: 60.0 mg/kg/injection, schedule: Q01DX001 (ip), vehicle: Klucel (hydroxypropylcellulose) (HPC), higher = longer survival 90 % of control | endpoint: median survival time, dose: 60.0 mg/kg/injection, schedule: Q01DX001 (ip), vehicle: saline with Tween-80, higher = longer survival 112 % of control | endpoint: median survival time, dose: 64.0 mg/kg/injection, schedule: Q01DX001 (ip), vehicle: saline + alcohol, higher = longer survival 57 % of control | endpoint: median survival time, dose: 128.0 mg/kg/injection, schedule: Q01DX001 (ip), vehicle: saline + alcohol, higher = longer survival 49 % of control
82 % of control: endpoint: median tumor weight (est.), dose: 2.0 mg/kg/injection, schedule: Q01DX009 (ip), vehicle: Klucel (hydroxypropylcellulose) (HPC), higher = larger tumour
59 % of control: endpoint: median tumor weight (est.), dose: 7.0 mg/kg/injection, schedule: Q01DX001 (ip), vehicle: DMSO, higher = larger tumour
16 % of control: endpoint: median tumor weight (est.), dose: 11.0 mg/kg/injection, schedule: Q01DX001 (ip), vehicle: DMSO, higher = larger tumour
83 % of control: endpoint: median tumor weight (est.), dose: 7.0 mg/kg/injection, schedule: Q01DX001 (sc), vehicle: olive oil, sesame oil, peanut oil, higher = larger tumour
90 % of control: endpoint: median tumor weight (est.), dose: 7.0 mg/kg/injection, schedule: Q01DX001 (ip), vehicle: saline with Tween-80, higher = larger tumour
56 % of control: endpoint: median tumor weight (est.), dose: 11.0 mg/kg/injection, schedule: Q01DX001 (ip), vehicle: saline with Tween-80, higher = larger tumour
71 % of control: endpoint: median tumor weight (est.), dose: 16.0 mg/kg/injection, schedule: Q01DX001 (ip), vehicle: saline with Tween-80, higher = larger tumour
74 % of control: endpoint: median tumor weight (est.), dose: 16.0 mg/kg/injection, schedule: Q01DX001 (sc), vehicle: olive oil, sesame oil, peanut oil, higher = larger tumour
51 % of control: endpoint: median tumor weight (est.), dose: 4.0 mg/kg/injection, schedule: Q01DX009 (ip), vehicle: Klucel (hydroxypropylcellulose) (HPC), higher = larger tumour
53 % of control: endpoint: median tumor weight (est.), dose: 11.0 mg/kg/injection, schedule: Q01DX001 (sc), vehicle: olive oil, sesame oil, peanut oil, higher = larger tumour
46 % of control: endpoint: median tumor weight (est.), dose: 16.0 mg/kg/injection, schedule: Q01DX001 (ip), vehicle: gum acacia, higher = larger tumour
